# Columns and labels:
# Experiment in all cases: PROTEASOMEGLO assay of proteasome inhibition in MM cells
# Assay type in all cases: cell-based
# [1] = target: T1, caspase-like sites (β1) of proteasome in MM cells (Homo sapiens, UniProt P28072+Q99436)
# T1 sequence (P28072 35-239): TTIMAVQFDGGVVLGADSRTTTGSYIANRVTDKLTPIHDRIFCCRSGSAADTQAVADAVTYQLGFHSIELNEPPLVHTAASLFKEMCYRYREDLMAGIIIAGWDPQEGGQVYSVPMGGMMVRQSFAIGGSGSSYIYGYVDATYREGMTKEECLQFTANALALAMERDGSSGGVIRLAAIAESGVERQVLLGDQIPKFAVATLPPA
# T1 sequence (Q99436 44-277): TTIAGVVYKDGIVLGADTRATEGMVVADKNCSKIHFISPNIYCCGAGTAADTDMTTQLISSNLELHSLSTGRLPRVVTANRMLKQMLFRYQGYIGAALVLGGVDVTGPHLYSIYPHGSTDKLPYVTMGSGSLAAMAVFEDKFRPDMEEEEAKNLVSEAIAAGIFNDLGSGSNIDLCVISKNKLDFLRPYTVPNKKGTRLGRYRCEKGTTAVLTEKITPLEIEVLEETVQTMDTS
# [2] = target: T2, chymotrypsin-like sites (β5) of proteasome in MM cells (Homo sapiens, UniProt P28074)
# T2 sequence (P28074 60-263): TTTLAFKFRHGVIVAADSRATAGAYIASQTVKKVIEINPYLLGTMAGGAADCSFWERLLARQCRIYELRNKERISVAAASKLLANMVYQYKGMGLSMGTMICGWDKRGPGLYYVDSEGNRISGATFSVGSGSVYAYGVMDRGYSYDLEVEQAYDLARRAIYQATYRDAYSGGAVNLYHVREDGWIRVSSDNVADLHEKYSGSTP
# Experimental: (§1) Proteasome inhibition in MM cells was measured with luminogenic substrates using PROTEASOMEGLO assay (Promega). […] An aliquot of culture was pelleted and medium was removed and replaced with PBS. The resulting cell suspension was mixed with luminogenic substrates in the manufacturer-provided lysis/assay buffer. After 3 minutes mixing on an orbital shaker, the plate was incubated in the dark for additional 17 minutes, followed by the measurements of the luminescence, performed in triplicate for each substrate/data point. Data were analyzed as for purified proteasomes. […] Cells (1×10^6 per well of a 6-well plate) were incubated with the inhibitors for 4 hours at 37° C. and this was followed by a 2 hour incubation with 5 μM BODIPY-TMR-epoxomicin. Subsequently, the medium was removed and the cells were washed with PBS and harvested. […] The supernatant was collected and the protein concentration was determined by the Bradford assay, and used to normalize gel loading. The samples were analysed by SDS-PAGE and fluorescent densitometry as described for competition experiment in cell lysates. IC50 values were calculated from three independent experiments using […] PRISM software.
# [3] = target: T3, trypsin-like sites (β2) of proteasome in MM cells (Homo sapiens, UniProt Q99436)
# T3 construct: endogenous in cells; host or cells: NCI-H929, RPMI-8226 and other MM cell lines
# T3 sequence (Q99436 44-277): T1 sequence (Q99436 44-277)
# Experimental: as §1
structure (smiles),measurement,setting,value
CC(C)C[C@H](NC(=O)[C@H](Cc1c(F)c(F)c(F)c(F)c1F)NC(=O)[C@H](Cc1ccccc1)NC(=O)[C@H](Cc1ccccc1)N=[N+]=[N-])C(=O)[C@@]1(C)CO1 [LU-005],Inhibition of active sites β1,"[1]; KMS-12-BM, LU-005 0.037 μM 1 h",−1 ± 5 % control
same,Inhibition of active sites β1,"[1]; KMS-12-BM, LU-005 0.33 μM 1 h",6 ± 12 % control
same,Inhibition of active sites β1,"[1]; KMS-12-BM, LU-005 1.0 μM 1 h",11 ± 16 % control
same,Inhibition of active sites β1,"[1]; KMS-18, LU-005 0.037 μM 1 h",0 ± 8 % control
same,Inhibition of active sites β1,"[1]; KMS-18, LU-005 0.33 μM 1 h",29 ± 7 % control
same,Inhibition of active sites β1,"[1]; KMS-18, LU-005 1.0 μM 1 h",32 ± 4 % control
same,Inhibition of active sites β1,"[1]; KMS-18, LU-005 3.0 μM 1 h",39 ± 12 % control
same,Inhibition of active sites β1,"[1]; KMS-18, LU-005 9.0 μM 1 h",42 ± 2 % control
same,Inhibition of active sites β1,"[1]; MM1.R, LU-005 0.004 μM 1 h",6 ± 8 % control
same,Inhibition of active sites β1,"[1]; NCI-H929, LU-005 0.0014 μM 1 h",−14 ± 15 % control
same,Inhibition of active sites β1,"[1]; NCI-H929, LU-005 0.004 μM 1 h",−7 ± 10 % control
same,Inhibition of active sites β1,"[1]; RPMI-8226, LU-005 0.037 μM 1 h",16 ± 7 % control
same,Inhibition of active sites β1,"[1]; RPMI-8226, LU-005 0.33 μM 1 h",37 ± 15 % control
same,Inhibition of active sites β1,"[1]; RPMI-8226, LU-005 1.0 μM 1 h",37 ± 4 % control
same,Inhibition of active sites β5,"[2]; KMS-12-BM, LU-005 0.037 μM 1 h",48 ± 9 % control
same,Inhibition of active sites β5,"[2]; KMS-12-BM, LU-005 0.33 μM 1 h",81 ± 3 % control
same,Inhibition of active sites β5,"[2]; KMS-12-BM, LU-005 1.0 μM 1 h",95 ± 2 % control
same,Inhibition of active sites β5,"[2]; KMS-18, LU-005 0.037 μM 1 h",14 % control
same,Inhibition of active sites β5,"[2]; KMS-18, LU-005 0.33 μM 1 h",69 ± 8 % control
same,Inhibition of active sites β5,"[2]; KMS-18, LU-005 1.0 μM 1 h",85 ± 6 % control
same,Inhibition of active sites β5,"[2]; KMS-18, LU-005 3.0 μM 1 h",94 ± 4 % control
same,Inhibition of active sites β5,"[2]; KMS-18, LU-005 9.0 μM 1 h",97 ± 1 % control
same,Inhibition of active sites β5,"[2]; MM1.R, LU-005 0.004 μM 1 h",17 ± 4 % control
same,Inhibition of active sites β5,"[2]; NCI-H929, LU-005 0.0014 μM 1 h",22 ± 4 % control
same,Inhibition of active sites β5,"[2]; NCI-H929, LU-005 0.004 μM 1 h",22 ± 11 % control
same,Inhibition of active sites β5,"[2]; RPMI-8226, LU-005 0.037 μM 1 h",45 ± 26 % control
same,Inhibition of active sites β5,"[2]; RPMI-8226, LU-005 0.33 μM 1 h",62 ± 32 % control
same,Inhibition of active sites β5,"[2]; RPMI-8226, LU-005 1.0 μM 1 h",82 ± 16 % control
same,Inhibition of active sites β2,"[3]; KMS-12-BM, LU-005 0.037 μM 1 h",−12 ± 1 % control
same,Inhibition of active sites β2,"[3]; KMS-12-BM, LU-005 0.33 μM 1 h",3 ± 18 % control
same,Inhibition of active sites β2,"[3]; KMS-12-BM, LU-005 1.0 μM 1 h",29 ± 7 % control
same,Inhibition of active sites β2,"[3]; KMS-18, LU-005 0.037 μM 1 h",−13 ± 13 % control
same,Inhibition of active sites β2,"[3]; KMS-18, LU-005 0.33 μM 1 h",24 ± 6 % control
same,Inhibition of active sites β2,"[3]; KMS-18, LU-005 1.0 μM 1 h",38 ± 5 % control
same,Inhibition of active sites β2,"[3]; KMS-18, LU-005 3.0 μM 1 h",50 ± 14 % control
same,Inhibition of active sites β2,"[3]; KMS-18, LU-005 9.0 μM 1 h",62 ± 5 % control
same,Inhibition of active sites β2,"[3]; MM1.R, LU-005 0.004 μM 1 h",6.5 ± 0.5 % control
same,Inhibition of active sites β2,"[3]; NCI-H929, LU-005 0.0014 μM 1 h",−9 ± 2 % control
same,Inhibition of active sites β2,"[3]; NCI-H929, LU-005 0.004 μM 1 h",−13 ± 7 % control
same,Inhibition of active sites β2,"[3]; RPMI-8226, LU-005 0.037 μM 1 h",1 ± 17 % control
same,Inhibition of active sites β2,"[3]; RPMI-8226, LU-005 0.33 μM 1 h",13 ± 11 % control
same,Inhibition of active sites β2,"[3]; RPMI-8226, LU-005 1.0 μM 1 h",22 ± 19 % control
